The results in this text go back to patent publication US8415272B2, “Quinoline derivatives and their use as fungicides” (Syngenta Crop Protection LLC, priority 2008, dated 2013).

The subject of one data set is Phytophthora infestans. Nature of the data set: whole plant or invertebrate. It counts as in vivo. The conditions noted are these: in Solanum lycopersicum, foliar, 96 h, read-out: control of fungal infection, Phytophthora infestans.
In a further data set the test system is Plasmopara viticola. As to the kind of experiment: Leaf disk assay, Plasmopara viticola (downy mildew of grapevine), preventive. In kind it is in vivo. The conditions noted are these: foliar, 168 h, grapevine leaf disks, assessed seven days after inoculation, read-out: control of fungal infection, Plasmopara viticola.
Another data set relates to Pyricularia oryzae. Nature of the data set: whole plant or invertebrate. The conditions noted are these: foliar, 96 h, read-out: control of fungal infection, Pyricularia oryzae. It counts as in vivo.
A further data set deals with Septoria tritici. As to the kind of experiment: Growth inhibition in nutrient broth, Septoria tritici (leaf blotch), photometric. It counts as cell-based. The conditions noted are these: Zymoseptoria tritici, PDB broth, 24 C, 72 hrs, read-out: control of fungal infection, Septoria tritici.
For data set [1], the system named is Puccinia recondita f.sp. tritici. As to the kind of experiment: Leaf disk assay, Puccinia recondita f.sp. tritici (wheat brown rust), preventive. It counts as in vivo. The conditions noted are these: foliar, 216 h, wheat leaf segments, assessed nine days after inoculation, read-out: control of fungal infection, Puccinia recondita f.sp. tritici.
Another data set deals with Pythium ultimum. As to the kind of experiment: Growth inhibition in potato dextrose broth, Pythium ultimum (damping off), photometric. In kind it is cell-based. To be noted: Globisporangium ultimum, 24° C., 48 hours, read-out: control of fungal infection, Pythium ultimum. An outline of the steps: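 Growth inhibition was read photometrically at 48 hours after incubation at 24° C. Test compound was diluted from DMSO to 20 ppm in water and combined with potato dextrose broth seeded with Pythium ultimum mycelial fragments.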

The subject of data set [2] is Erysiphe graminis f.sp. tritici. As to the kind of experiment: Leaf disk assay, Erysiphe graminis f.sp. tritici (wheat powdery mildew), preventive. It counts as in vivo. To be noted: Blumeria graminis, foliar, 96 h, wheat leaf segments, assessed four days after inoculation, read-out: control of fungal infection, Erysiphe graminis f.sp. tritici. The essentials: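 Wheat leaf segments on agar were sprayed with compound at 200 ppm (DMSO stock diluted in water). After 12–24 h drying they were inoculated with powdery mildew spores. Preventive activity was scored 4 days after inoculation.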

Another data set concerns Septoria nodorum. Nature of the data set: Leaf disk assay, Septoria nodorum (wheat glume blotch), preventive. In kind it is in vivo. To be noted: Parastagonospora nodorum, foliar, 96 h, wheat leaf segments, assessed four days after inoculation, read-out: control of fungal infection, Septoria nodorum.
A further data set relates to Fusarium culmorum. Nature of the data set: Growth inhibition in nutrient broth, Fusarium culmorum (root rot), photometric. It counts as cell-based. To be noted: 48 h, read-out: control of fungal infection, Fusarium culmorum. The essentials:
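Fusarium culmorum conidia in potato dextrose broth were added to compounds in DMSO. Plates were incubated at 24 C for 48 hrs, with growth inhibition read photometrically. […]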

In the next data set the test system is Pyrenophora teres. Nature of the data set: Leaf disk assay, Pyrenophora teres (barley net blotch), preventive. In kind it is in vivo. The conditions noted are these: foliar, 96 h, barley leaf segments, assessed four days after inoculation, read-out: control of fungal infection, Pyrenophora teres. An outline of the steps:
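Barley leaf segments on agar were sprayed with compound at 200 ppm (from DMSO stock diluted in water) and dried for 12-24 h before inoculation with a Pyrenophora teres spore suspension. Preventive fungicidal activity was scored 4 days after inoculation.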

In a further data set the test system is Botrytis cinerea. Nature of the data set: Leaf disk assay, Botrytis cinerea (grey mould) on bean, preventive. In kind it is in vivo. To be noted: foliar, 96 h, bean leaf disks, assessed four days after inoculation, read-out: control of fungal infection, Botrytis cinerea.

As for `C#Cc1cnc2cc(F)c(OC(SC)C(=O)NC(C)(C#N)COC)cc2c1` (centres unmarked) [Example 6], the pest or weed control at 200 ppm (in the data set with Phytophthora infestans; in the data set with Plasmopara viticola; in the data set on Pyricularia oryzae; in data set [1]; in data set [2]; in the data set with Septoria nodorum) was no less than 60% each time. Besides, in the data set with Septoria tritici, the inhibition of growth at 60 ppm was no less than 60%. Also, the inhibition of growth at 20 ppm in the data set on Pythium ultimum is no less than 60%.

For the compound `C#Cc1cnc2c(C)cc(OC(SC)C(=O)NC(C)(C#N)COC)cc2c1` (centres unmarked) [Example 12], the pest or weed control at 200 ppm (with Phytophthora infestans; in the data set on Plasmopara viticola; with Pyricularia oryzae; in data set [1]; in data set [2]; in the data set on Septoria nodorum) was no less than 60% each time. Moreover, in the data set on Septoria tritici, the inhibition of growth at 60 ppm was no less than 60%. Also, the inhibition of growth at 20 ppm in the data set with Pythium ultimum is no less than 60%.

With `C#CCC(C)(C)NC(=O)C(Oc1cc(C)c2ncc(C#C)cc2c1)SC` (centres unmarked) [Example 16], the pest or weed control at 200 ppm (in the data set with Phytophthora infestans; in the data set on Plasmopara viticola; in the data set on Pyricularia oryzae; in data set [1]; in the data set with Pyrenophora teres; in data set [2]) was no less than 60% each time. Besides, the pest or weed control at 200 ppm in the data set on Septoria nodorum was no less than 60%. Further, the inhibition of growth at 60 ppm in the data set on Septoria tritici and in the data set with Fusarium culmorum was no less than 60% in each case. For the same compound, in the data set on Pythium ultimum, the inhibition of growth at 20 ppm is no less than 60%.

One may read the melting point as the temperature, or range, at which the solid turns liquid. Regarding `C#Cc1cnc2ccc(OC(SC)C(=O)NC(C)(C)CO)cc2c1` (centres unmarked) [Compound 168, 2-(3-ethynyl-quinolin-6-yloxy)-N-(2-hydroxy-1,1-dimethyl-ethyl)-2-methylsulfanyl-acetamide], the melting point lay in the range of 149 to 151 °C.

For the compound `C#Cc1cnc2c(C)cc(OC(SC)C(=O)NC(C)(C)CO)cc2c1` (centres unmarked) [Example 15], the pest or weed control at 200 ppm in the data set with Phytophthora infestans, in the data set with Plasmopara viticola, in the data set with Pyricularia oryzae and in the data set on Septoria nodorum was no less than 60% in each case. For the same compound, the inhibition of growth at 60 ppm with Septoria tritici is no less than 60%. For the same compound, the inhibition of growth at 20 ppm in the data set with Pythium ultimum was no less than 60%.

Turning to `C#CCOCC#CC(C)(C)NC(=O)C(Oc1cc(C)c2ncc(C#C)cc2c1)SC` (centres unmarked) [Example 10], the pest or weed control at 200 ppm (in the data set with Phytophthora infestans; in the data set on Plasmopara viticola; in the data set with Pyricularia oryzae; in data set [2]; in the data set on Septoria nodorum) was no less than 60% in each case. Besides, the inhibition of growth at 60 ppm with Septoria tritici and with Fusarium culmorum was no less than 60% in each case. Also, in the data set with Pythium ultimum, the inhibition of growth at 20 ppm is no less than 60%.

As to `C#Cc1cnc2c(C)cc(OC(SC)C(=O)NC(C)(C)C#CCOC)cc2c1` (centres unmarked) [Example 9], the pest or weed control at 200 ppm (with Phytophthora infestans; in the data set on Plasmopara viticola; in the data set on Pyricularia oryzae; in data set [1]; in [2]; with Septoria nodorum) was no less than 60% throughout. The inhibition of growth at 60 ppm in the data set with Septoria tritici and in the data set on Fusarium culmorum was no less than 60% throughout. The inhibition of growth at 20 ppm in the data set on Pythium ultimum was no less than 60%.

As for `C#Cc1cnc2c(C)cc(OC(SC)C(=O)NC(C)(C)C#CC)cc2c1` (centres unmarked) [Example 8], the pest or weed control at 200 ppm in the data set with Phytophthora infestans, in the data set on Plasmopara viticola, in the data set on Pyricularia oryzae, in the data set with Pyrenophora teres, in the data set on Botrytis cinerea and in the data set on Septoria nodorum was no less than 60% each time. Also, the inhibition of growth at 60 ppm in the data set on Septoria tritici and in the data set with Fusarium culmorum was no less than 60% in each case. The inhibition of growth at 20 ppm in the data set on Pythium ultimum was no less than 60%.

`C#Cc1cnc2c(C)cc(OC(SC)C(=O)NC(C)(C)C#C)cc2c1` (centres unmarked) [Example 7]: the pest or weed control at 200 ppm in the data set with Phytophthora infestans, with Plasmopara viticola, in the data set on Pyricularia oryzae, in the data set with Pyrenophora teres and in the data set on Septoria nodorum was no less than 60% each time. The inhibition of growth at 60 ppm in the data set with Septoria tritici and in the data set on Fusarium culmorum was no less than 60% each time. For the same compound, in the data set on Pythium ultimum, the inhibition of growth at 20 ppm is no less than 60%.

For the compound `C#CCOCC(C)(COCC#C)NC(=O)C(Oc1ccc2ncc(C#C)cc2c1)SC` (centres unmarked) [Example 12c, 2-(3-ethynyl-quinolin-6-yloxy)-N-(1-methyl-2-prop-2-ynyloxy-1-prop-2-ynyloxymethyl-ethyl)-2-methylsulfanyl-acetamide], the melting point lay in the range of 95 to 100 °C.

On to `C#Cc1cnc2cc(F)c(OC(SC)C(=O)NC(C)(C#N)CO)cc2c1` (centres unmarked) [Compound 174, N-(1-Cyano-2-hydroxy-1-methyl-ethyl)-2-(3-ethynyl-7-fluoro-quinolin-6-yloxy)-2-methylsulfanyl-acetamide], for which the melting point was 80 to 83 °C.

As for `C#Cc1cnc2ccc(OC(SC)C(=O)NC3COC3)cc2c1` (centres unmarked) [Compound 178, 2-(3-Ethynyl-quinolin-6-yloxy)-2-methylsulfanyl-N-oxetan-3-yl-acetamide], the melting point lay within 98 to 100 °C.

`C#Cc1cnc2c(Cl)cc(OC(SC)C(=O)NC3(C)CCC3)cc2c1` (centres unmarked) [Compound 203, 2-(8-Chloro-3-ethynyl-quinolin-6-yloxy)-N-(1-methyl-cyclobutyl)-2-methylsulfanyl-acetamide] returned a melting point of 121 to 123 °C.

Take `C#Cc1cnc2ccc(OC(SC)C(=O)NC(C)(C#C)CO)cc2c1` (centres unmarked) [Compound 173, 2-(3-Ethynyl-quinolin-6-yloxy)-N-(1-hydroxymethyl-1-methyl-prop-2-ynyl)-2-methylsulfanyl-acetamide]: the melting point is 150 to 155 °C.

For the compound `C#Cc1cnc2ccc(OC(SC)C(=O)NC3CSC3)cc2c1` (centres unmarked) [Compound 223, 2-(3-Ethynyl-quinolin-6-yloxy)-2-methylsulfanyl-N-thietan-3-yl-acetamide], the melting point fell in the range of 150 to 152 °C.

`C#Cc1cnc2ccc(OC(SC)C(=O)NC(C)(C#N)CO)cc2c1` (centres unmarked) [Example 12d, N-(1-cyano-2-hydroxy-1-methyl-ethyl)-2-(3-ethynyl-quinolin-6-yloxy)-2-methylsulfanyl-acetamide] registered a melting point of 78 to 80 °C.

`C#Cc1cnc2ccc(OC(SC)C(=O)NC3(C)CSC3)cc2c1` (centres unmarked) [Compound 224, 2-(3-Ethynyl-quinolin-6-yloxy)-2-methylsulfanyl-N-(3-methyl-thietan-3-yl)-acetamide] showed a melting point of 132 to 134 °C.

For `C#Cc1cnc2ccc(OC(SC)C(=O)NC(C)(C#C)CO)cc2c1` (centres unmarked) [Compound 160, 2-(3-ethynyl-quinolin-6-yloxy)-N-(1-hydroxymethyl-1-methylprop-2-ynyl)-2-methylsulfanyl-acetamide], the melting point is 149 to 150 °C.

With `C#CCOCC(C)(C)NC(=O)C(Oc1cc(C)c2ncc(C#C)cc2c1)SC` (centres unmarked) [Example 14], the pest or weed control at 200 ppm (in the data set with Phytophthora infestans; in the data set on Plasmopara viticola; in the data set on Pyricularia oryzae; in [1]; with Pyrenophora teres; in data set [2]) was no less than 60% each time. Moreover, the pest or weed control at 200 ppm with Botrytis cinerea and in the data set on Septoria nodorum was no less than 60% each time. Moreover, the inhibition of growth at 60 ppm with Septoria tritici and in the data set with Fusarium culmorum was no less than 60% throughout. In addition, the inhibition of growth at 20 ppm with Pythium ultimum is no less than 60%.

Turning to `C#Cc1cnc2c(C)cc(OC(SC)C(=O)NC(C)(C)COC)cc2c1` (centres unmarked) [Example 13], the pest or weed control at 200 ppm (in the data set on Phytophthora infestans; in the data set on Plasmopara viticola; in the data set with Pyricularia oryzae; in data set [1]; in the data set with Pyrenophora teres; in data set [2]) was no less than 60% in each case. In addition, the pest or weed control at 200 ppm in the data set with Botrytis cinerea and in the data set on Septoria nodorum was no less than 60% throughout. Moreover, the inhibition of growth at 60 ppm in the data set with Septoria tritici and in the data set with Fusarium culmorum was no less than 60% in each case. Besides, in the data set with Pythium ultimum, the inhibition of growth at 20 ppm was no less than 60%.
